Test results from ChEMBL document CHEMBL1140272, “Discovery of potent and use-dependent sodium channel blockers for treatment of chronic pain” (Bioorg Med Chem Lett, 2005).

What was measured:
[1] = target: T1, Sodium channel protein type 9 subunit alpha (Homo sapiens, UniProt Q15858); experiment: In vitro inhibitory concentration against Na v1.7 channel expressed in HEK293 cells using Voltage/Ion Probe Reader (VIPR) assay; type: cell-based
Target sequence in this assay (Q15858 whole entry): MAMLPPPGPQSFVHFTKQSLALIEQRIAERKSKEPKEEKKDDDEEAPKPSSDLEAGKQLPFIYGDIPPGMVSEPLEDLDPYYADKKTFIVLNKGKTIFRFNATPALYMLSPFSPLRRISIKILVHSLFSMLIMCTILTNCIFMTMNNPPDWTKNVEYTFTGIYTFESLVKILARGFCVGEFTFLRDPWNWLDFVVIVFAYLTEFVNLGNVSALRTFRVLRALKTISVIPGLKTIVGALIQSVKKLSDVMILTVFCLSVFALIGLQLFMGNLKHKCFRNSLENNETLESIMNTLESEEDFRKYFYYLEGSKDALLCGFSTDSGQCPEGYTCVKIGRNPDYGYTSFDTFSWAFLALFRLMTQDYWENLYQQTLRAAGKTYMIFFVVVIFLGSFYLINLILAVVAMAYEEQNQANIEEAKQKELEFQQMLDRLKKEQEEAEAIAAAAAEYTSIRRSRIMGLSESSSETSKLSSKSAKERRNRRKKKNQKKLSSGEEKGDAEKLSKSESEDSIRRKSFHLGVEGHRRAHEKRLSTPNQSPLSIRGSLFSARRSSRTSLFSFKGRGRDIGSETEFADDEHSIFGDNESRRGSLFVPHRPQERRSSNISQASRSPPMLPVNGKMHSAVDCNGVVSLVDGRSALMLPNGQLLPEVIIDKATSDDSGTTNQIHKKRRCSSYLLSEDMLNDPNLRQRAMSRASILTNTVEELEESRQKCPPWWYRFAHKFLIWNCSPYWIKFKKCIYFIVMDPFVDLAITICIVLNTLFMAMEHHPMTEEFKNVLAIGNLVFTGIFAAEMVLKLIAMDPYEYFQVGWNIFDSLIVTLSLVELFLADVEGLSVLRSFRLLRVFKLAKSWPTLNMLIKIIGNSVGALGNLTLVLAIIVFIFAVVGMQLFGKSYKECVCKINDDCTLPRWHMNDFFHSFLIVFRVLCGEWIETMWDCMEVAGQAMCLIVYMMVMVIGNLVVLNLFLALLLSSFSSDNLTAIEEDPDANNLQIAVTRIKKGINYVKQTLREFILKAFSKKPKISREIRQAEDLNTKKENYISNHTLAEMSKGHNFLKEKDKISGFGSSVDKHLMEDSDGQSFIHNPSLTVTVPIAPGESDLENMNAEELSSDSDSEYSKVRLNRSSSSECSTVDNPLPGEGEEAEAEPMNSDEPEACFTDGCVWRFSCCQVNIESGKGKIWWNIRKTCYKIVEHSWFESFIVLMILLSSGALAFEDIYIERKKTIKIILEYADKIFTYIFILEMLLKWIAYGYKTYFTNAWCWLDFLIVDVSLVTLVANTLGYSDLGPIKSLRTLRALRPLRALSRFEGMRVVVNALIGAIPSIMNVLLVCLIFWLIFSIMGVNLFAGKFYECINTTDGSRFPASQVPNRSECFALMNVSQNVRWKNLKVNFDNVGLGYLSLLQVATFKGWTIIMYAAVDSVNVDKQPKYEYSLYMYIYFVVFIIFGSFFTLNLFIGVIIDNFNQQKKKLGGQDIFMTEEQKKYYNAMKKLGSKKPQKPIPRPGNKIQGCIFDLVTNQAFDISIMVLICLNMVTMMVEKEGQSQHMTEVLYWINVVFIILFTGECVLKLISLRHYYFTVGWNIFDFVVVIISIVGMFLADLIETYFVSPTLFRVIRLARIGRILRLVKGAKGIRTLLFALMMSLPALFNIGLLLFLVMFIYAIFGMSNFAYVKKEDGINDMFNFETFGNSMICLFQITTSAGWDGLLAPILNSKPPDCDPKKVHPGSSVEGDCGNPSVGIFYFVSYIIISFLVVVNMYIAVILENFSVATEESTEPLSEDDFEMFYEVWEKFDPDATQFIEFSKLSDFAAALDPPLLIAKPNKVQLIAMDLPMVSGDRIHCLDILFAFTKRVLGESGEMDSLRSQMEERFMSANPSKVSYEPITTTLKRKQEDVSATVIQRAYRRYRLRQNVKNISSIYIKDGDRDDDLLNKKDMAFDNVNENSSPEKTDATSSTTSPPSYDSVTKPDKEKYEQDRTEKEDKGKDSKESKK

[2] = target: hERG (KCNH2) (Homo sapiens, UniProt Q12809); experiment: Percent inhibition against displacement of 35[S] MK-499 binding to hERG channel expressed in HEK293 cells at a concentration of 10 uM; type: cell-based; details: HEK293 cells that express hERG, probe [35S]MK-499
Chain of hERG (KCNH2) (Q12809 whole entry): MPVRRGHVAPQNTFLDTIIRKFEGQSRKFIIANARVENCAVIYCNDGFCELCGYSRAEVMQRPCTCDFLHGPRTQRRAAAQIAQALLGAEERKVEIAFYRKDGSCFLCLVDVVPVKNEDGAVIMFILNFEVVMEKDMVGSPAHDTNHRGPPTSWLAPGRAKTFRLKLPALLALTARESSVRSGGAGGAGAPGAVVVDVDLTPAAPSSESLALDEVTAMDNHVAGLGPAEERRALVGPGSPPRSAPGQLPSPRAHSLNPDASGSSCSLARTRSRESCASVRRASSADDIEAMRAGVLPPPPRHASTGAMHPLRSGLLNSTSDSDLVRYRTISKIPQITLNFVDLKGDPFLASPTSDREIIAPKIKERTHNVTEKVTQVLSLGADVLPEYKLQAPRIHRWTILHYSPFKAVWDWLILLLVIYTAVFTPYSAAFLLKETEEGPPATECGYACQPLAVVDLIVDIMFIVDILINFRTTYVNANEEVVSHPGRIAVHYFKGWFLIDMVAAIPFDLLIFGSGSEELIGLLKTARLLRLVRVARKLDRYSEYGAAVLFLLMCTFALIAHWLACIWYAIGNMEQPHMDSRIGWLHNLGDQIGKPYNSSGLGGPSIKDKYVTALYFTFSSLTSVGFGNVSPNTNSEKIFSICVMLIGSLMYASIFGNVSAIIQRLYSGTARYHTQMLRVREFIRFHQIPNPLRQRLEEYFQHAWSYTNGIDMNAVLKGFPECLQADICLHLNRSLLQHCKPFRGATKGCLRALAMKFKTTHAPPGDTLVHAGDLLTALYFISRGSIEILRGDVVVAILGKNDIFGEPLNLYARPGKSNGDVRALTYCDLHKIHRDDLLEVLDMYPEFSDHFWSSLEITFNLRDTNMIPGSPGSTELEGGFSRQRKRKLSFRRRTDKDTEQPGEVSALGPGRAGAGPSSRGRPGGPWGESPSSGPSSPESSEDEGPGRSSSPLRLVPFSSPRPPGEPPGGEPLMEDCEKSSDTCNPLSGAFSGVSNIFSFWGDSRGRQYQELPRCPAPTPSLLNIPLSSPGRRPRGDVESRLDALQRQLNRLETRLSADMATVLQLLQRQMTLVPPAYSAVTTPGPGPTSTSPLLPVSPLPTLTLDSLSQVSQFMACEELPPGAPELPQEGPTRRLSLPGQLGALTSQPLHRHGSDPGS

[3] = Clearance rate in rat was determined; type: ADME, organism-based; details: plasma, read-out: Clp
[4] = target: T2, Voltage-gated inwardly rectifying potassium channel KCNH2 (Homo sapiens, UniProt Q12809); experiment: In vivo inhibitory concentration against displacement of 35[S] MK-499 binding to hERG channel expressed in HEK293 cells; type: organism-based
T2 sequence (Q12809 whole entry): as above

[5] = Half-life in rat was determined; type: ADME; details: in vivo
[6] = target: T1, Sodium channel protein type 9 subunit alpha; details: HEK293
Target sequence in this assay (Q15858 whole entry, looked up): as the sequence (Q15858 whole entry) above

[7] = system: Rattus norvegicus; experiment: Percent formalin paw response in rat at (10-40 min, 3 mg/kg, iv); type: functional
[8] = target: T1, Sodium channel protein type 9 subunit alpha; experiment: In vivo inhibitory concentration against Na v1.7 channel expressed in HEK293 cells using Voltage/Ion Probe Reader (VIPR) assay; type: organism-based
Target sequence in this assay (Q15858 whole entry): as above

[9] = target: T1, Sodium channel protein type 9 subunit alpha; experiment: In vitro inhibitory concentration against Na v1.7 channel electrophysiology in inactivated state expressed in HEK293 cells using Voltage/Ion Probe Reader (VIPR) assay; type: cell-based
Target sequence in this assay (Q15858 whole entry): as above

[10] = Bioavailability in rat; type: ADME, organism-based; details: in vivo
[11] = target: T1, Sodium channel protein type 9 subunit alpha; experiment: In vitro inhibitory concentration against Na v1.7 channel electrophysiology in resting state expressed in HEK293 cells using Voltage/Ion Probe Reader (VIPR) assay; type: functional, cell-based
Target sequence in this assay (Q15858 whole entry, looked up): as the sequence (Q15858 whole entry) above

[12] = target: T2, Voltage-gated inwardly rectifying potassium channel KCNH2
Description: In vitro inhibitory concentration against displacement of 35[S] MK-499 binding to hERG channel expressed in HEK293 cells

IC50 [1] | SMILES | inhibition at 10 µM [2] | further results
> 30 µM | COc1cccc(C(=O)N2CCCC2)c1OC(C)c1ccccc1 (stereo not given) |  | 
1 µM | O=C(c1ccccc1OCc1csc(-c2ccc(Cl)cc2)n1)N1CCCC1 | 63% | clearance [3]: 627 mL/min/kg; IC50 [4]: 9.8 µM; half-life [5]: 26.4 min; KR [6]: 6.7 µM; Activity [7]: 65%; IC50 [8]: 1 µM; Ki [9]: 0.16 µM; bioavailability [10]: 17%
> 30 µM | O=C(c1cccc(O)c1OCc1csc(-c2ccc(Cl)cc2)n1)N1CCCC1 |  | 
0.55 µM | COc1cccc(C(=O)N2CCCC2)c1OCc1ccc(-c2cccs2)s1 |  | 
1.3 µM | COc1cccc(C(=O)N2CCCC2)c1OCc1csc(-c2ccc(Cl)cc2)n1 | 50% | IC50 ([1]; hek293): 1.3 µM; clearance [3]: 101 mL/min/kg; KR [11]: 10 µM; half-life [5]: 28.8 min; Activity [7]: 68%; Ki [9]: 0.14 µM; bioavailability [10]: 9.4%; IC50 [12]: 7.7 µM
0.73 µM | O=C(c1cccc(Cl)c1OCc1csc(-c2ccc(Cl)cc2)n1)N1CCCC1 |  | 
0.55 µM | Cc1cccc(C(=O)N2CCCC2)c1OCc1csc(-c2ccc(Cl)cc2)n1 |  | 
2.9 µM | Clc1ccc(-c2nc(COc3ccccc3CN3CCCCCCC3)cs2)cc1 |  | 
29 µM | O=C(c1ccccc1OCc1csc(-c2ccc(Cl)cc2)n1)N1CCCCCCC1 | 90% | 
6.6 µM | CCOc1cccc(C(=O)N2CCCC2)c1OCc1csc(-c2ccc(Cl)cc2)n1 |  | 
3.7 µM | COc1cccc(C(=O)N2CCCCC2)c1OCc1csc(-c2ccc(Cl)cc2)n1 | 63% | 
7.4 µM | O=C(c1ccccc1OCc1csc(-c2ccc(Cl)cc2)n1)N1CCCCC1 | 89% | 
3.8 µM | COc1cccc(CN2CCCCCCC2)c1OCc1csc(-c2ccc(Cl)cc2)n1 |  | 
6.5 µM | COc1cccc(C(=O)N2CCCCCC2)c1OCc1csc(-c2ccc(Cl)cc2)n1 | 85% | 
2.2 µM | COc1cccc(C(=O)N2CCCC2)c1OC(C)c1csc(-c2ccc(Cl)cc2)n1 (stereo not given) |  | 
7.5 µM | CC(C)Oc1cccc(C(=O)N2CCCC2)c1OCc1csc(-c2ccc(Cl)cc2)n1 |  | 
21 µM | COc1cccc(C(=O)N2CCCC2)c1OCCCc1ccccc1 |  | 
0.86 µM | COc1cccc(C(=O)N2CCCC2)c1OCc1nc(-c2ccc(Cl)cc2)no1 |  | 
> 30 µM | COc1cccc(C(=O)N2CCCC2)c1OCCc1ccccc1 |  | 
22 µM | CC(C)(C)Oc1cccc(C(=O)N2CCCC2)c1OCc1csc(-c2ccc(Cl)cc2)n1 |  | 
90 µM | COc1cccc(C(=O)N2CCCC2)c1OCc1ccc(C(C)(C)C)cc1 |  | 
40 µM | O=C(c1ccccc1OCc1csc(-c2ccc(Cl)cc2)n1)N1CCCCCC1 | 90% | 
4 µM | COc1cccc(CN2CCCCCCC2)c1OCc1csc(-c2ccccc2)n1 |  | IC50 [12]: 0.18 µM
19.4 µM | COc1cccc(C(=O)N2CCCCCCC2)c1OCc1csc(-c2ccc(Cl)cc2)n1 | 88% | 
4 µM | COc1cccc(C(=O)N2CCCC2)c1OCc1ccc(-c2ccccc2)cc1 |  | 
